Laboratory results: patent US11214803B2, “Modulators of YAP1 expression” (Ionis Pharmaceuticals, Inc., priority 2019, dated 2022)
Marks after values point to notes of the source that are not given here. Strand notation (5' to 3'): a small letter for the sugar, then the base; units joined by * are phosphorothioate-linked, units joined directly phosphodiester-linked; [ ] holds rarer units or linkages, { } end groups; capitals alone tell only the bases. k = constrained ethyl (cEt); [5mC] = 5-methylcytosine; d = 2'-deoxy (DNA)

test system: Yap1 mRNA; experiment: Antisense inhibition of human Yap1 in A-431 cells by cEt gapmers, single dose (Example 4, RTS4814); assay type: cell-based; settings: Table 14; A-431 cells, 5,000 cells per well, free uptake, 2,000 nM, approximately 48 hours; RTS4814; normalized to RIBOGREEN; Yap1 mRNA relative to untreated control; * = targets amplicon region of primer probe set
In short: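 A-431 cells took up 3-10-3 cEt gapmers (16-mer, full phosphorothioate, 5-methylcytosines) by free uptake at 2,000 nM for about 48 h. Yap1 mRNA was quantified by qRT-PCR, normalized to total RNA (RIBOGREEN), and reported as % of untreated control.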

Row | Substance | YAP1 (% UTC)
1 | 1075232 (antisense kA*kT*kT*dT*dA*dT*d[5mC]*dA*dG*d[5mC]*d[5mC]*dA*dT*kT*kG*kT) [Compound 1075232] | 13
2 | 1074304 (antisense k[5mC]*kT*kG*d[5mC]*d[5mC]*dG*dA*dA*dG*d[5mC]*dA*dG*dT*kT*k[5mC]*kT) [Compound 1074304] | 109
3 | 1074976 (antisense kT*kT*k[5mC]*dT*dA*dT*dT*dG*dG*dA*dA*dG*dA*k[5mC]*k[5mC]*kA) [Compound 1074976] | 35
4 | 1075296 (antisense kA*kT*kT*dA*dT*dA*dA*dG*d[5mC]*dT*dG*dT*dG*kT*kT*kG) [Compound 1075296] | 18
5 | 1075712 (kG*kA*k[5mC]*dG*d[5mC]*dG*dA*dA*dA*dT*dA*d[5mC]*dT*kT*kA*k[5mC]; antisense) [Compound 1075712] | 7

same assay, conditions: Table 15; A-431 cells, 5,000 cells per well, free uptake, 2,000 nM, approximately 48 hours; RTS4814; normalized to RIBOGREEN; Yap1 mRNA relative to untreated control; * = targets amplicon region of primer probe set

Row | Substance | YAP1 (% UTC)
6 | 1075457 (antisense kA*kG*kT*dA*dA*dT*dA*dT*dG*dT*dA*d[5mC]*dA*kT*kG*kG) [Compound 1075457] | 5
7 | 1076289 (kA*kA*k[5mC]*dG*dG*dA*d[5mC]*dA*dA*d[5mC]*dT*dT*dA*kA*k[5mC]*kA; antisense) [Compound 1076289] | 21
8 | 1075969 (kG*kT*kA*dT*dT*dT*dA*dA*dG*d[5mC]*d[5mC]*dA*dA*kA*k[5mC]*k[5mC]; antisense) [Compound 1075969] | 11
9 | 1074657 (antisense kT*k[5mC]*k[5mC]*d[5mC]*d[5mC]*d[5mC]*d[5mC]*dA*dG*dA*d[5mC]*dT*dT*kA*kA*kT) [Compound 1074657] | 59
10 | 1074977 (antisense k[5mC]*kT*kT*dG*dT*dT*d[5mC]*dT*dA*dT*dT*dG*dG*kA*kA*kG) [Compound 1074977] | 94
11 | 1075873 (k[5mC]*kT*kT*dG*dA*dA*dT*dA*d[5mC]*dT*dA*d[5mC]*dA*k[5mC]*k[5mC]*kA; antisense) [Compound 1075873] | 16
12 | 1074497 (k[5mC]*kA*kA*dT*dA*dA*d[5mC]*d[5mC]*dA*dT*d[5mC]*d[5mC]*d[5mC]*kA*kA*kG; antisense) [Compound 1074497] | 26

same assay, conditions: Table 16; A-431 cells, 5,000 cells per well, free uptake, 2,000 nM, approximately 48 hours; RTS4814; normalized to RIBOGREEN; Yap1 mRNA relative to untreated control cells

Row | Substance | YAP1 (% UTC)
13 | 1075394 (kT*k[5mC]*kT*dT*dA*dA*d[5mC]*d[5mC]*dT*dA*dT*dG*d[5mC]*k[5mC]*kA*kA; antisense) [Compound 1075394] | 27
14 | 1075554 (kT*kT*kG*d[5mC]*dA*dA*dT*dA*dG*dT*d[5mC]*dA*d[5mC]*k[5mC]*k[5mC]*kA; antisense) [Compound 1075554] | 56
15 | 1075682 (kG*kA*kT*dA*dA*dT*dT*dA*dT*dT*dA*d[5mC]*d[5mC]*k[5mC]*k[5mC]*kT; antisense) [Compound 1075682] | 35
16 | 1074530 (k[5mC]*kT*kA*dA*dA*d[5mC]*dT*dA*d[5mC]*dT*dT*d[5mC]*dA*kA*kA*k[5mC]; antisense) [Compound 1074530] | 88
17 | 1075138 (antisense kA*kA*kT*dA*dA*dT*dA*dG*dA*dT*dA*d[5mC]*dT*kG*k[5mC]*k[5mC]) [Compound 1075138] | 4
18 | 1076258 (k[5mC]*kT*kT*dT*dA*dG*dG*dT*dG*d[5mC]*d[5mC]*dT*d[5mC]*k[5mC]*kT*kT; antisense) [Compound 1076258] | 10
19 | 1075426 (antisense kG*kT*kA*dT*dT*dA*dT*dT*dA*dA*dT*d[5mC]*d[5mC]*kT*kG*kT) [Compound 1075426] | 49

same assay, conditions: Table 17; A-431 cells, 5,000 cells per well, free uptake, 2,000 nM, approximately 48 hours; RTS4814; normalized to RIBOGREEN; Yap1 mRNA relative to untreated control cells

Row | Substance | YAP1 (% UTC)
20 | 1076163 (kG*kA*kT*dA*dT*dA*dA*dG*dT*dT*dA*d[5mC]*d[5mC]*kA*kA*kT; antisense) [Compound 1076163] | 16 % UTC
21 | 1075299 (kG*kA*kT*dA*dA*d[5mC]*d[5mC]*dA*dA*dT*dG*d[5mC]*dA*k[5mC]*k[5mC]*kA; antisense) [Compound 1075299] | 21 % UTC
22 | 1076451 (k[5mC]*k[5mC]*kT*dT*dA*dA*dG*dA*dA*d[5mC]*dA*dT*dG*kA*kG*kG; antisense) [Compound 1076451] | 77 % UTC
23 | 1076259 (kA*kT*kT*dT*dA*dA*d[5mC]*dT*d[5mC]*d[5mC]*dT*dG*dA*kA*kG*kT; antisense) [Compound 1076259] | 61 % UTC
24 | 1075651 (kT*kA*kT*dA*dT*dT*dA*d[5mC]*dA*dA*dT*d[5mC]*d[5mC]*k[5mC]*kA*kG; antisense) [Compound 1075651] | 57 % UTC
25 | 1076227 (kA*k[5mC]*kT*dT*dA*dT*dA*dA*dG*dG*d[5mC]*d[5mC]*dA*kG*k[5mC]*kA; antisense) [Compound 1076227] | 16 % UTC
26 | 1076003 (kA*kA*kT*dT*dT*dA*dA*dT*dG*dG*d[5mC]*dT*dT*kG*k[5mC]*kA; antisense) [Compound 1076003] | 8 % UTC
27 | 1075491 (antisense kG*kA*k[5mC]*dG*dG*dA*dA*dG*dT*dT*dG*d[5mC]*dA*kA*kG*kG) [Compound 1075491] | 93 % UTC
28 | 1074435 (kG*kA*k[5mC]*dT*dT*d[5mC]*dT*dA*dA*dG*dT*d[5mC]*dT*kG*kA*kG; antisense) [Compound 1074435] | 19* % UTC
29 | 1076035 (kG*kT*kA*dA*dT*dT*dA*dG*dA*dA*dA*d[5mC]*dT*kT*kG*kG; antisense) [Compound 1076035] | 9 % UTC
30 | 1074787 (k[5mC]*kA*kA*d[5mC]*d[5mC]*dA*dT*dA*dA*dG*dT*dA*dG*kA*kT*k[5mC]; antisense) [Compound 1074787] | 13 % UTC

same assay, conditions: Yap1 mRNA remaining as percent of untreated control; 3-10-3 cEt gapmers; A-431 cells; Table 36

Row | Substance | YAP1 (% UTC)
31 | 1074358 (antisense kT*k[5mC]*kG*dA*dG*dG*dG*dA*d[5mC]*dA*d[5mC]*dT*dG*kT*kA*kG) [compound 1074358] | 17
32 | 1074518 (kA*kA*kA*dT*dG*d[5mC]*dA*dT*dA*d[5mC]*dA*dA*dA*kG*k[5mC]*kG; antisense) [compound 1074518] | 13
33 | 1075606 (antisense kG*k[5mC]*kT*dA*dA*dA*d[5mC]*d[5mC]*dT*dA*d[5mC]*dA*d[5mC]*kG*k[5mC]*kT) [compound 1075606] | 82
34 | 1076118 (k[5mC]*kG*kT*dA*dA*dA*dT*dT*dG*dA*dG*dG*d[5mC]*k[5mC]*k[5mC]*kA; antisense) [compound 1076118] | 45
35 | 1075254 (kT*k[5mC]*k[5mC]*d[5mC]*dA*dA*dA*dA*dG*dT*d[5mC]*dA*dT*k[5mC]*kG*k[5mC]; antisense) [compound 1075254] | 28
36 | 1075030 (antisense kT*kT*kA*dA*dT*dA*dT*dT*d[5mC]*dG*dA*d[5mC]*dA*k[5mC]*kT*kG) [compound 1075030] | 37
37 | 1076502 (k[5mC]*kA*kA*dA*dG*dT*dA*dA*dG*dT*dG*dA*dG*k[5mC]*k[5mC]*k[5mC]; antisense) [compound 1076502] | 17
38 | 1075894 (antisense k[5mC]*kT*k[5mC]*dG*dA*dA*dA*dG*d[5mC]*dT*dG*dG*dG*k[5mC]*k[5mC]*k[5mC]) [compound 1075894] | 100
39 | 1074294 (antisense kT*kT*kG*dG*dA*dG*dT*dT*dG*d[5mC]*dT*dG*d[5mC]*k[5mC]*kA*k[5mC]) [compound 1074294] | 80
40 | 1075542 (kT*kG*kA*dG*dA*dA*dA*dG*dG*dT*dT*d[5mC]*d[5mC]*kT*kG*kA; antisense) [compound 1075542] | 66
41 | 1075798 (kA*kT*kT*dT*dA*dG*dA*dT*dA*dG*dT*dT*dA*k[5mC]*kT*kG; antisense) [compound 1075798] | 21

same assay, conditions: Yap1 mRNA remaining as percent of untreated control; 3-10-3 cEt gapmers; A-431 cells; Table 37

Row | Substance | YAP1 (% UTC)
42 | 1074967 (antisense kG*kA*k[5mC]*dA*dA*dA*dT*dT*dG*dA*dA*dG*dT*kG*kT*kT) [compound 1074967] | 116
43 | 1074167 (antisense k[5mC]*kG*k[5mC]*dA*d[5mC]*d[5mC]*d[5mC]*d[5mC]*d[5mC]*dT*dG*dA*d[5mC]*k[5mC]*k[5mC]*kA) [compound 1074167] | 58
44 | 1075127 (kG*k[5mC]*kT*dA*dA*dA*dT*dT*dA*dT*dG*d[5mC]*dT*kA*kT*kT; antisense) [compound 1075127] | 79
45 | 1075799 (k[5mC]*k[5mC]*kT*d[5mC]*dA*dA*d[5mC]*dA*d[5mC]*dA*dT*dT*dT*kG*kA*kG; antisense) [compound 1075799] | 85
46 | 1074263 (antisense kA*kG*k[5mC]*d[5mC]*dG*dA*dG*dT*dT*d[5mC]*dA*dT*d[5mC]*kA*kT*kA) [compound 1074263] | 34
47 | 1075639 (antisense kA*kA*kT*dT*dA*dA*d[5mC]*d[5mC]*dA*dG*dA*dA*dG*k[5mC]*k[5mC]*kT) [compound 1075639] | 101
48 | 1075863 (antisense k[5mC]*k[5mC]*kT*dA*dA*dT*dA*dA*d[5mC]*dT*dT*dG*dT*k[5mC]*kT*kA) [compound 1075863] | 71

same assay, conditions: table after Table 37, headed TABLE 32 (gapmers targeting SEQ ID NO.: 3); A-431 cells, free uptake, 2,000 nM, approximately 48 hours, RTS4814

Row | Substance | YAP1 (% UTC)
49 | 1074881 (k[5mC]*kT*kA*dA*d[5mC]*dT*d[5mC]*d[5mC]*dT*dG*d[5mC]*d[5mC]*dG*kA*kA*kG; antisense) [compound 1074881] | 76
